The values below come from patent US9440982B2 (Eolas Therapeutics, Inc., priority 2012, dated 2016).

For one data set, the target named is T1, OX1 (Homo sapiens, UniProt O43613).
T1 construct: expressed in transfected cells; host or cells: CHO (CHO-OX1, kept under selection antibiotic)
T1 sequence (O43613 1-425): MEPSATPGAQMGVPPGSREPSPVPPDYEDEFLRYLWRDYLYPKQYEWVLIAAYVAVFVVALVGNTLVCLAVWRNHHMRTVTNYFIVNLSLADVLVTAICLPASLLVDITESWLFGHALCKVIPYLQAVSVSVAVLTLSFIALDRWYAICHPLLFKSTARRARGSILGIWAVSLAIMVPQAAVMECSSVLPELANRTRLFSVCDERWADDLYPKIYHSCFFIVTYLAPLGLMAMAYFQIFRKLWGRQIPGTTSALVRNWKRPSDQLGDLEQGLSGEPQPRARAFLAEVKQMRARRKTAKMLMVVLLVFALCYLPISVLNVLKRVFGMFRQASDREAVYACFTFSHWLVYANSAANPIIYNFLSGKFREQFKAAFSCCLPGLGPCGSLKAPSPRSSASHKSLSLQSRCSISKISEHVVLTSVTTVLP
Kind of data set: Orexin receptor cell-based functional assay, [Ca2+]i by FLIPR, CHO-OX1 cells. The note with it: CHO-OX1 cells, [Ca2+]i by FLIPR, antagonist dose-range 0.1 nM-10 μM, EC90 of OXA; read-out: OX1. The method in brief: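 Antagonist mode FLIPR calcium read in CHO-OX1 and CHO-OX2 lines. Test compounds, dosed 0.1 nM-10 μM, preincubated 30 min after 37° C dye loading with 2.5 mM probenecid (calcium4 for 30 min or calcium6 for 2 h).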

Another data set concerns the target T2, CYP3A4 (Homo sapiens, UniProt P08684).
T2 construct: pre-incubated with human liver microsomes and NADPH; from tissue; host or cells: human liver microsomes
Kind of data set: Cytochrome P450 inhibition assay (midazolam hydroxylation). It counts as in vitro ADME. The note with it: human, human liver microsomes, probe midazolam (hydroxylation to 1′-hydroxymidazolam), 10 μM test compound, midazolam at approximately its Km. The method in brief: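 Percent inhibition of midazolam 1′-hydroxylation by 10 μM compound was measured, midazolam dosed at about Km. Time-dependent inhibition was probed by a 30 min preincubation of compound with human liver microsomes and NADPH ahead of substrate, compared against samples without preincubation.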

T2 sequence (P08684 whole entry): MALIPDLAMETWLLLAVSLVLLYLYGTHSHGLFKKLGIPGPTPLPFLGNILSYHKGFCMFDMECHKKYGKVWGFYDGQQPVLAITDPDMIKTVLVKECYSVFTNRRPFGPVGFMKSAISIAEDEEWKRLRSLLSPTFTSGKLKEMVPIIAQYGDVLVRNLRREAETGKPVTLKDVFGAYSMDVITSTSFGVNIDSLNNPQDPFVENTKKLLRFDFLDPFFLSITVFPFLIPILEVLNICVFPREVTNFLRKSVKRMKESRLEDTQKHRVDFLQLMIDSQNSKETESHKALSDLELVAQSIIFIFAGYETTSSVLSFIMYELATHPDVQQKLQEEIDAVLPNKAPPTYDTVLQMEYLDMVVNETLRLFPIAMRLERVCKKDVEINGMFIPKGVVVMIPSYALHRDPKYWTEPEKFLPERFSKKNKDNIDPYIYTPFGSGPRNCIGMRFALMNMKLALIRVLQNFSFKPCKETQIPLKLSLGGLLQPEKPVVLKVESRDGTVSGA

On to `Cc1ccc(-c2ncccn2)c(C(=O)N2CCC[C@@H](C)[C@H]2CNc2ccc(C(F)(F)F)nn2)n1` [Example A185, ((2S,3R)-3-Methyl-2-(((6-(trifluoromethyl)pyridazin-3-yl)amino)methyl)piperidin-1-yl)(6-methyl-3-(pyrimidin-2-yl)pyridin-2-yl)methanone], for which the IC50 on OX1 stood at 0.046 µM. Further, on CYP3A4, the inhibition at 10 µM turned out to be 33%.

On to `Cc1ccc(-c2ncccn2)c(C(=O)N2CCC[C@@H](C)[C@H]2CNc2ccc(Cl)cn2)n1` [Example A186, ((2S,3R)-2-(((5-chloropyridin-2-yl)amino)methyl)-3-methylpiperidin-1-yl)(6-methyl-3-(pyrimidin-2-yl)pyridin-2-yl)methanone], for which, on OX1, the IC50 came to 0.005 µM. This molecule registered an inhibition at 10 µM against CYP3A4 of 53%.

Take `Cc1ccc(-c2ncccn2)c(C(=O)N2CCC[C@@H](C)[C@H]2CNc2nnc(C(F)(F)F)s2)n1` [Example A187, ((2S,3R)-3-Methyl-2-(((5-(trifluoromethyl)-1,3,4-thiadiazol-2-yl)amino)methyl)piperidin-1-yl)(6-methyl-3-(pyrimidin-2-yl)pyridin-2-yl)methanone]: the IC50 on OX1 is 0.2 µM. At CYP3A4, this molecule registered an inhibition at 10 µM of 40%.

With `Cc1ccc(-n2nccn2)c(C(=O)N2CCC[C@@H](C)[C@H]2CNc2ncc(C(F)(F)F)cc2F)n1` [Example A188, ((2S,3R)-2-(((3-Fluoro-5-(trifluoromethyl)pyridin-2-yl)amino)methyl)-3-methylpiperidin-1-yl)(6-methyl-3-(2H-1,2,3-triazol-2-yl)pyridin-2-yl)methanone], the IC50 on OX1 came to 0.001 µM. At CYP3A4, this molecule yielded an inhibition at 10 µM of 59%.

As to `Cc1ccc(-n2nccn2)c(C(=O)N2CCC[C@@H](C)[C@H]2CNc2ccc(C#N)cn2)n1` [Example A189, 6-((((2S,3R)-3-Methyl-1-(6-methyl-3-(2H-1,2,3-triazol-2-yl)picolinoyl)piperidin-2-yl)methyl)amino)nicotinonitrile], at OX1, the IC50 was 0.12 µM. The molecule further showed an inhibition at 10 µM on CYP3A4 of 37%.

Take `Cc1ccc(-n2nccn2)c(C(=O)N2CCC[C@@H](C)[C@H]2CNc2ncc(C#N)cn2)n1` [Example A190, 2-((((2S,3R)-3-Methyl-1-(6-methyl-3-(2H-1,2,3-triazol-2-yl)picolinoyl)piperidin-2-yl)methyl)amino)pyrimidine-5-carbonitrile]: the IC50 at OX1 turned out to be 2 µM. Moreover, testing at 10 µM against CYP3A4 gave an inhibition of 24%.

In the case of `Cc1ccc(-n2nccn2)c(C(=O)N2CCC[C@@H](C)[C@H]2CN(C)c2ccc(C(F)(F)F)cn2)n1` [Example A194, ((2S,3R)-3-Methyl-2-((methyl(5-(trifluoromethyl)pyridin-2-yl)amino)methyl)piperidin-1-yl)(6-methyl-3-(2H-1,2,3-triazol-2-yl)pyridin-2-yl)methanone], the IC50 on OX1 came to 0.006 µM. This molecule returned an inhibition at 10 µM against CYP3A4 of 79%.

Take `Cc1ccc(-n2nccn2)c(C(=O)N2CCC[C@@H](C)[C@H]2CNc2nc3cc(Cl)ccc3o2)n1` [Example A195, ((2S,3R)-2-(((5-Chlorobenzo[d]oxazol-2-yl)amino)methyl)-3-methylpiperidin-1-yl)(6-methyl-3-(2H-1,2,3-triazol-2-yl)pyridin-2-yl)methanone]: on OX1, the IC50 is 0.004 µM. The inhibition at 10 µM at CYP3A4 was determined as 57%.

As for `Cc1ccc(-c2cccnn2)c(C(=O)N2CCC[C@@H](C)[C@H]2CNc2ccc(C(F)(F)F)cn2)c1` [Example A197, ((2S,3R)-3-methyl-2-(((5-(trifluoromethyl)pyridin-2-yl)amino)methyl)piperidin-1-yl)(5-methyl-2-(pyridazin-3-yl)phenyl)methanone], the IC50 on OX1 turned out to be 0.007 µM. This molecule also came in with an inhibition at 10 µM at CYP3A4 of 83%.

As to `Cc1ccc(-c2ccccn2)c(C(=O)N2CCC[C@@H](C)[C@H]2CNc2nc3cc(Cl)ccc3o2)n1` [Example A199, ((2S,3R)-2-(((5-Chlorobenzo[d]oxazol-2-yl)amino)methyl)-3-methylpiperidin-1-yl)(6′-methyl-[2,3′-bipyridin]-2′-yl)methanone], at OX1, the IC50 was found to be 0.015 µM. In addition, on CYP3A4, 10 µM produced 62% inhibition.

For `C[C@@H]1CCCN(C(=O)c2cc(Cl)ccc2-c2ncccn2)[C@@H]1CNc1ccc(C(F)(F)F)nn1` [Example A200, (5-Chloro-2-(pyrimidin-2-yl)phenyl)((2S,3R)-3-methyl-2-(((6-(trifluoromethyl)pyridazin-3-yl)amino)methyl)piperidin-1-yl)methanone], the IC50 on OX1 was 0.054 µM. At CYP3A4, this molecule gave an inhibition at 10 µM of 73%.

Regarding `C[C@@H]1CCCN(C(=O)c2cc(Cl)ccc2-c2ncccn2)[C@@H]1CNc1ncc(C(F)(F)F)cn1` [Example A201, (5-Chloro-2-(pyrimidin-2-yl)phenyl)((2S,3R)-3-methyl-2-(((5-(trifluoromethyl)pyrimidin-2-yl)amino)methyl)piperidin-1-yl)methanone], the IC50 on OX1 was determined as 0.004 µM. On CYP3A4, this molecule registered an inhibition at 10 µM of 38%.

Turning to `C[C@@H]1CCCN(C(=O)c2cc(Cl)ccc2-c2ncccn2)[C@@H]1CNc1ncc(Cl)cn1` [Example A202, (5-Chloro-2-(pyrimidin-2-yl)phenyl)((2S,3R)-2-(((5-chloropyrimidin-2-yl)amino)methyl)-3-methylpiperidin-1-yl)methanone], the IC50 at OX1 came out at 0.018 µM. Besides, the inhibition at 10 µM against CYP3A4 worked out at 44%.

As for `C[C@@H]1CCCN(C(=O)c2cc(Cl)ccc2-c2ncccn2)[C@@H]1CNc1ccc(Cl)cn1` [Example A203, (5-Chloro-2-(pyrimidin-2-yl)phenyl)((2S,3R)-2-(((5-chloropyridin-2-yl)amino)methyl)-3-methylpiperidin-1-yl)methanone], on OX1, the IC50 amounted to 0.021 µM. The molecule also showed an inhibition at 10 µM at CYP3A4 of 70%.

Consider `Cc1ccc(-c2ncccn2)c(C(=O)N2CCC[C@@H](C)[C@H]2CNc2nc3ccccc3o2)c1` [Example A204, ((2S,3R)-2-((Benzo[d]oxazol-2-ylamino)methyl)-3-methylpiperidin-1-yl)(5-methyl-2-(pyrimidin-2-yl)phenyl)methanone], for which, at OX1, the IC50 turned out to be 0.003 µM. The molecule also displayed an inhibition at 10 µM on CYP3A4 of 60%.

For `Cc1ccc(-c2ncccn2)c(C(=O)N2CCC[C@@H](C)[C@H]2CNc2nc3cc(Cl)ccc3o2)c1` [Example A205, ((2S,3R)-2-(((5-Chlorobenzo[d]oxazol-2-yl)amino)methyl)-3-methylpiperidin-1-yl)(5-methyl-2-(pyrimidin-2-yl)phenyl)methanone], at OX1, the IC50 turned out to be 0.011 µM. On CYP3A4, this molecule yielded an inhibition at 10 µM of 72%.

Consider `Cc1ccc(-c2ncccn2)c(C(=O)N2CCC[C@@H](C)[C@H]2CNc2nc3cc(F)ccc3o2)c1` [Example A206, ((2S,3R)-2-(((5-Fluorobenzo[d]oxazol-2-yl)amino)methyl)-3-methylpiperidin-1-yl)(5-methyl-2-(pyrimidin-2-yl)phenyl)methanone], for which, on OX1, the IC50 was determined as 0.006 µM. This molecule also gave an inhibition at 10 µM against CYP3A4 of 58%.

As to `C[C@@H]1CCCN(C(=O)c2cc(F)ccc2-n2nccn2)[C@@H]1CNc1ccc(C(F)(F)F)nn1` [Example A208, (5-Fluoro-2-(2H-1,2,3-triazol-2-yl)phenyl)((2S,3R)-3-methyl-2-(((6-(trifluoromethyl)pyridazin-3-yl)amino)methyl)piperidin-1-yl)methanone], the IC50 at OX1 came to 0.2 µM. On CYP3A4, testing at 10 µM gave an inhibition of 59%.

With `C[C@@H]1CCCN(C(=O)c2cc(F)ccc2-n2nccn2)[C@@H]1CNc1ccc(Cl)cn1` [Example A209, ((2S,3R)-2-(((5-Chloropyridin-2-yl)amino)methyl)-3-methylpiperidin-1-yl)(5-fluoro-2-(2H-1,2,3-triazol-2-yl)phenyl)methanone], the IC50 at OX1 was found to be 0.045 µM. At CYP3A4, this molecule had an inhibition at 10 µM of 69%.

Regarding `Cc1ccc(-c2ncccn2)c(C(=O)N2CCC[C@@H](C)[C@H]2CNc2ncc(C(F)(F)F)cn2)c1` [Example A212, ((2S,3R)-3-Methyl-2-(((5-(trifluoromethyl)pyrimidin-2-yl)amino)methyl)piperidin-1-yl)(5-methyl-2-(pyrimidin-2-yl)phenyl)methanone], the IC50 at OX1 came to 0.005 µM. Moreover, at 10 µM the inhibition on CYP3A4 was 49%.

Regarding `C[C@@H]1CCCN(C(=O)c2ccccc2-n2nccn2)[C@@H]1CNc1nc2ccccc2o1` [Example A218, (2-(2H-1,2,3-Triazol-2-yl)phenyl)((2S,3R)-2-((benzo[d]oxazol-2-ylamino)methyl)-3-methylpiperidin-1-yl)methanone], at OX1, the IC50 came out at 0.13 µM. Also, the inhibition at 10 µM on CYP3A4 came out at 75%.

As for `C[C@@H]1CCCN(C(=O)c2ccccc2-n2nccn2)[C@@H]1CNc1nc2cc(Cl)ccc2o1` [Example A219, (2-(2H-1,2,3-Triazol-2-yl)phenyl)((2S,3R)-2-(((5-chlorobenzo[d]oxazol-2-yl)amino)methyl)-3-methylpiperidin-1-yl)methanone], the IC50 on OX1 came out at 2.6 µM. The same molecule gave an inhibition at 10 µM at CYP3A4 of 84%.
